Laboratory results from patent US20120009222A1, “MODULATION OF THE IMMUNE RESPONSE” (priority 2008, published 2012).

Assays:
influenza virus = experiment: Inhibition of influenza viral replication in mouse lung (plaque forming assay); parameters: species or system mice; conditions: in vivo, iv, 2 mg/kg
serum IFN-alpha = experiment: Systemic Type 1 interferon response: serum IFN-alpha by ELISA; conditions: siRNA in lyophilized ND(5)-98-1 nanoparticles, 2 mg/kg IV twice
Protocol: Mice were injected IV twice with lyophilized ND(5)-98-1 (ND98)-siRNA nanoparticles at 2 mg/kg siRNA prior to (a) infection with 12,000 PFU, or (b) blood collection by cardiac puncture. […] (b) Serum IFN-alpha concentration was determined by ELISA.

TLR7 = target: T1, TLR7 (Homo sapiens, UniProt Q9NYK1); conditions: cited from earlier work
T1 construct: host or cells: human PBMCs (endogenous receptor)
T1 sequence (Q9NYK1 27-1049): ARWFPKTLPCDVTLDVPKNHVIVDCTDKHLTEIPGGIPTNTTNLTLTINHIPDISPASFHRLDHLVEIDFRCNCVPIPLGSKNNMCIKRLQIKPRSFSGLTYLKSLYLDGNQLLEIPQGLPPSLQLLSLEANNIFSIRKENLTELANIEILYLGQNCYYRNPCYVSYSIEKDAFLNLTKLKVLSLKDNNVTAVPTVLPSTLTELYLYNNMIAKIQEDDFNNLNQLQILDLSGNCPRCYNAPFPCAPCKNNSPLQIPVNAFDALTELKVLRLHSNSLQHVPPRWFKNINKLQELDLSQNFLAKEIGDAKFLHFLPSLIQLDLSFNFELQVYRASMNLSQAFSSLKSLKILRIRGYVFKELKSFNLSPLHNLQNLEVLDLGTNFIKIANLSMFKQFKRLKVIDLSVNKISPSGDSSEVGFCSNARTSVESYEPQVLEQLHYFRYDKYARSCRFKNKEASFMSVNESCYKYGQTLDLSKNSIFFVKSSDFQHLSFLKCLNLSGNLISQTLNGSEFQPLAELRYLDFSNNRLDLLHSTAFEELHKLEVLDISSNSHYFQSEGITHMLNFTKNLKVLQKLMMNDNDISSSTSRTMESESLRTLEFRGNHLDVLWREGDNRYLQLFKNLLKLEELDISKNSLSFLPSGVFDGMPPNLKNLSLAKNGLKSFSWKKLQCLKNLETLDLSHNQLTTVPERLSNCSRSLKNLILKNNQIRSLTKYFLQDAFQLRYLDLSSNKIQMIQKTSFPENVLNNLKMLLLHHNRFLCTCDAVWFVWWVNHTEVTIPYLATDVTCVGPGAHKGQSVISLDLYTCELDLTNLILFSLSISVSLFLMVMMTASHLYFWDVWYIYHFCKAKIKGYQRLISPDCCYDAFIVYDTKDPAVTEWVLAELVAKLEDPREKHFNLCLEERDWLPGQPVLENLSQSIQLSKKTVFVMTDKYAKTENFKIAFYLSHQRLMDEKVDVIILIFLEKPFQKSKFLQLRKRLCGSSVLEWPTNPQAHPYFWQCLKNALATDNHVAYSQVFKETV

TLR8 = target: T2, TLR8 (Homo sapiens, UniProt Q9NR97); conditions: cited from earlier work
T2 construct: a strong ligand for both TLR7 and TLR8 in vitro in human PBMCs tranfected with DOTAP; host or cells: human PBMCs (endogenous receptor)
T2 sequence (Q9NR97 27-1041): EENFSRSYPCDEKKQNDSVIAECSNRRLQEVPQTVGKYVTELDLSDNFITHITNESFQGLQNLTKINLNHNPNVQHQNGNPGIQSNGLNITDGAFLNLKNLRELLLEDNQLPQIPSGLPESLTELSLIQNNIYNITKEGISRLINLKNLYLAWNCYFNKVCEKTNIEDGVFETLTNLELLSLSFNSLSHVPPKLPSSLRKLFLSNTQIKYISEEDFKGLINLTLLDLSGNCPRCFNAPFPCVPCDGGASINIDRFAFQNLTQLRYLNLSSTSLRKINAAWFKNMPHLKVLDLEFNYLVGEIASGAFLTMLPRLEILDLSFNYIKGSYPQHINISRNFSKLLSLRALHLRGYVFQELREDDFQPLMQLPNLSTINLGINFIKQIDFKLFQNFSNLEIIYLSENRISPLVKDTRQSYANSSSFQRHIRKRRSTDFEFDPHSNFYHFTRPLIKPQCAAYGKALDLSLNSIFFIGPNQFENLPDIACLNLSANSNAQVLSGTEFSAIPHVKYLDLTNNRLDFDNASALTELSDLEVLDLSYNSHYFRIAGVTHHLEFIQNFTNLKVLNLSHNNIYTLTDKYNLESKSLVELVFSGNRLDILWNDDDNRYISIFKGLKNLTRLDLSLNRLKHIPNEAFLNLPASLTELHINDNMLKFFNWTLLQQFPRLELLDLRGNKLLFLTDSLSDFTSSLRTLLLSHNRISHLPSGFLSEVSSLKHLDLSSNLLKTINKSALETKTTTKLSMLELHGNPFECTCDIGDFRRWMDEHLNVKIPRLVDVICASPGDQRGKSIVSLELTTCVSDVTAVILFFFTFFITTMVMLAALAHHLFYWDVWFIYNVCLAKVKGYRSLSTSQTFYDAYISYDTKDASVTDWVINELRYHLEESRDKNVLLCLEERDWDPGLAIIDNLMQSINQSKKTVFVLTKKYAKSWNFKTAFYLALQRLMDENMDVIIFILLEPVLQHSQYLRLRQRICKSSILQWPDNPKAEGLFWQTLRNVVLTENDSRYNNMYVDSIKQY

Substance: 5′-GGAUCUUAUUUCUUCGGAGUU-3′ [siNP-1496]
- viral titer versus nanoparticles formulated with siGFP-949 (influenza virus): significant reductions
- serum IFN-alpha (serum IFN-alpha): high levels

Substance: 5′-CUACACAAAUCAGCGAUUUUU-3′ [siBgal-728]
- viral titer versus nanoparticles formulated with siGFP-949 (influenza virus): significant reductions
- serum IFN-alpha (serum IFN-alpha): high levels

Substance: 5′-UUGUUGUUGUUGUUGUUGUU-3′ (all phosphorothioate, sugars by position not given here; lipidoid formulation) [R1362]
- TLR7 agonist activity (TLR7): highly active
- TLR8 agonist activity (TLR8): highly active

Substance: 5′-GCCACCGAGCCGAAGGCACC-3′ (all phosphorothioate, sugars by position and methylation of C not given here; lipidoid formulation) [R1263]
- TLR7 agonist activity (TLR7): low
- TLR8 agonist activity (TLR8): low
